Patent US8476036B2, “Nonluminogenic assay for living cells” (Promega Corporation, priority 2004, dated 2013)
Where a name gives a salt, the structure may show the parent alone. Read-outs that look alike come from different tables or passages of the source. Square brackets hold non-standard residues; d marks the D form. Peptide text beside a SMILES is read from it. * marks the point of attachment. Sta = CC(C)C[C@H](N)[C@@H](O)CC(=O)O; Isovaleryl = CC(C)CC(=O)*

Key:
HL-60 and/or U937 = assay: Protease retention assay inhibitor/adjuncts survey with Gly-Phe-AFC; type: cell-based; details: for Comments: no inhibition/no effect to (concentration): highest concentration without effect on retention activity
Description: (§1) Puromycin, E-64, Phenylmethanesulfonyl fluoride (PMSF), Adenosine 5′-triphosphate (ATP), N-(α-Rhamnopyranosyloxyhyrdoxyphosphinyl)-Leu-Trp disodium salt (Phosphoramidon), N-[(2S,3R)-3-Amino-2-hydroxy-4-phenylbutyryl-L-leucine hydrochloride (Bestatin), 1,10-Phenathroline, […], 4-(2-Aminoethyl)benzenesulfonyl fluoride (AEBSF), 1,4-Dithio-DL-threitol (DTT), Edetate disodium dihyrdrate (EDTA), Isovaleryl-L-valyl-L-valyl-[(3S,4S)-4-amino-3-hydroxy-6-methylheptanoyl]-L-alanyl[93S,4S]-4-amino-3-hydroxy-6-methylheptanoicacid (Pepstatin A), sodium chloride, Aprotinin, N-Acetyl-L-leucyl-L-leucyl-L-argininal hemisulfate salt (leupeptin) were all purchased from Sigma. Inhibitors were resuspended in DMSO to varying stock concentrations with a high target concentration of 200 μM or 200 μg/ml in Dulbecco's Phosphate Buffer Saline w/o Mg^++ or Ca^++ (DPBS) for addition to either lysates or viable cell populations. DTT, NaCl, EDTA, and ATP were also diluted in DPBS. All compounds were incubated with compromised or viable cells for a period of at least 30 minutes (most 60 minutes) at 37° C. prior to assessment of activity.
(§2) The protease retention assay inhibitor/adjuncts survey was conducted on sonicated, saponin-lysed, or viable HL-60 and/or U937 using Gly-Phe-AFC at 100 μM final concentration as described previously. The protease release assay inhibitor/adjuncts survey was conducted on sonicated, saponin-lysed, or viable HL-60, SK-MEL-28, and/or U937 using Ala-Ala-Phe-AMC or (Ala-Ala-Phe)2-Rhodamine 110.

HL-60, SK-MEL-28, U937 = assay: Protease release assay inhibitor/adjuncts survey with Ala-Ala-Phe-AMC; type: cell-based; details: for Comments: extent of the effect on release activity, in words
Description: as §1, §2

[1] = extent or nature of the effect on retention activity, in words
[2] = on protease retention activity, Gly-Phe-AFC at 100 μM final, sonicated, saponin-lysed, or viable cells
[3] = on protease release activity, Ala-Ala-Phe-AMC, sonicated, saponin-lysed, or viable cells
[4] = highest concentration without inhibition of release activity

| Compound | Effect (HL-60 and/or U937; [2]) | Effect (HL-60, SK-MEL-28, U937; [3]) | Comments: no inhibition to (concentration) (HL-60, SK-MEL-28, U937; [4]) | further results |
| --- | --- | --- | --- | --- |
| O[C@@H](CS)[C@@H](O)CS (racemic) [DTT, 1,4-Dithio-DL-threitol] | Augments | Augments | – | Protease retention activity profile in the presence of inhibitors or adjuncts (HL-60 and/or U937): independent; Comments (HL-60 and/or U937; [1]): Very slightly; Comments (HL-60, SK-MEL-28, U937): Modest |
| c1cnc2c(c1)ccc1cccnc12 [1,10 Phenanthroline, 1,10-Phenathroline] | No inhib | No inhib | to 100 uM | Comments: no inhibition/no effect to (concentration) (HL-60 and/or U937): to 100 uM |
| O=c1oc(Cl)c(Cl)c2ccccc12 [3,4 Diisocoumarin, 3,4-diisocoumarin] | Inhibition(?) | Inhibition | – | Comments (HL-60 and/or U937; [1]): Kills cells; Comments (HL-60, SK-MEL-28, U937): Strong |
| NCCc1ccc(S(=O)(=O)F)cc1 [AEBSF, 4-(2-Aminoethyl)benzenesulfonyl fluoride] | – | Inhibition | – | Comments (HL-60, SK-MEL-28, U937): Strong |
| Nc1ncnc2c1ncn2[C@@H]1O[C@H](COP(=O)(O)OP(=O)(O)OP(=O)(O)O)[C@@H](O)[C@H]1O [ATP, Adenosine 5′-triphosphate] | No effect | – | – | Protease retention activity profile in the presence of inhibitors or adjuncts (HL-60 and/or U937): independent; Comments: no inhibition/no effect to (concentration) (HL-60 and/or U937): to 100 uM |
| CC(C)C[C@H](NC(=O)[C@@H](O)[C@H](N)Cc1ccccc1)C(=O)O [Bestatin, N-[(2S,3R)-3-Amino-2-hydroxy-4-phenylbutyryl-L-leucine hydrochloride] | Inhibition | No inhib | to 10 uM | Protease retention activity profile in the presence of inhibitors or adjuncts (HL-60 and/or U937): sensitivities; Comments (HL-60 and/or U937; [1]): Strong |
| CC(C)C[C@H](NC(=O)[C@H]1O[C@@H]1C(=O)O)C(=O)NCCCCN=C(N)N [E-64] | No inhib | No inhib | to 100 uM | Comments: no inhibition/no effect to (concentration) (HL-60 and/or U937): to 100 uM |
| O.O.O=C([O-])CN(CCN(CC(=O)[O-])CC(=O)O)CC(=O)O.[Na+].[Na+] [EDTA, Edetate disodium dihyrdrate] | – | – | – | Comments (HL-60 and/or U937): Also reduces; Effect (HL-60 and/or U937): Inhibition; Protease retention activity profile in the presence of inhibitors or adjuncts (HL-60 and/or U937): sensitivities; Comments: no inhibition to (concentration) (HL-60, SK-MEL-28, U937): to 50 mM; Effect (HL-60, SK-MEL-28, U937): No inhib |
| NC(N)=NCCC[C@H](NC(=O)[C@@H]1CCCN1C(=O)[C@H](N)Cc1ccccc1)C(=O)CCl [FPR-CMK] | – | Inhibition | – | Comments (HL-60, SK-MEL-28, U937): Moderate |
| CC(=O)N[C@@H](CC(C)C)C(=O)N[C@@H](CC(C)C)C(=O)N[C@H](C=O)CCCNC(=N)N [Leupeptin, N-Acetyl-L-leucyl-L-leucyl-L-argininal hemisulfate salt] | – | No inhib | to 100 ug/ml | – |
| [Cl-].[Na+] [NaCl, sodium chloride] | No inhib | – | – | Comments (HL-60 and/or U937; [1]): Insensitivity |
| O=S(=O)(F)Cc1ccccc1 [PMSF, Phenylmethanesulfonyl fluoride] | No inhib | Inhibition | – | Comments: no inhibition/no effect to (concentration) (HL-60 and/or U937): to 100 uM; Comments (HL-60, SK-MEL-28, U937): Strong |
| CC(C)CC(=O)N[C@H](C(=O)N[C@H](C(=O)N[C@@H](CC(C)C)[C@@H](O)CC(=O)N[C@@H](C)C(=O)N[C@@H](CC(C)C)[C@@H](O)CC(=O)O)C(C)C)C(C)C [Pepstatin, Isovaleryl-L-valyl-L-valyl-[(3S,4S)-4-amino-3-hydroxy-6-methylheptanoyl]-L-alanyl[93S,4S]-4-amino-3-hydroxy-6-methylheptanoicacid] (Isovaleryl-VV[Sta]A[Sta]-OH) | – | No inhib | to 100 uM | – |
| CC(C)C[C@H](NP(=O)(O)O[C@@H]1O[C@@H](C)[C@H](O)[C@@H](O)[C@H]1O)C(=O)N[C@@H](Cc1c[nH]c2ccccc12)C(=O)O [Phosphoramidon, N-(α-Rhamnopyranosyloxyhyrdoxyphosphinyl)-Leu-Trp disodium salt] | No inhib | No inhib | to 100 uM | Comments: no inhibition/no effect to (concentration) (HL-60 and/or U937): to 100 uM |
| COc1ccc(C[C@H](N)C(=O)N[C@H]2[C@@H](O)[C@H](n3cnc4c(N(C)C)ncnc43)O[C@@H]2CO)cc1 [Puromycin] | Inhibition | – | – | Protease retention activity profile in the presence of inhibitors or adjuncts (HL-60 and/or U937): sensitivities; Comments (HL-60 and/or U937; [1]): Very modest |
| Antitrypsin: Serine (trypsin-like) protease inhibitor in Table 6 | – | No inhib | to 100 ug/ml | – |
| Aprotinin | – | No inhib | to 100 uM | – |
